For the data set, the system named is Yap1 mRNA. Description: Antisense inhibition of human Yap1 in SNU-449 cells by modified oligonucleotides, single dose (Example 5, RTS36584). Format: cell-based. Summed up: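 Values are % of untreated control: Yap1 mRNA by quantitative RT-PCR (RTS36584), normalized to RIBOGREEN total RNA. Oligonucleotides were dosed at 2,000 nM, free uptake, in SNU-449 cells, with roughly 48 h exposure before RNA isolation.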

The mark [1] stands for this setting: Table 45, Yap1 mRNA as percent of untreated control, SNU-449 cells, single dose.
The mark [2] stands for this setting: Table 40 (separate experiment), SNU-449 cells, 10,000 cells per well, free uptake, 2,000 nM oligonucleotide, approx. 48 hours, RTS36584, normalized to RIBOGREEN, Yap1 mRNA relative to untreated control.
Setting [3] is: Table 49, Yap1 mRNA level relative to untreated control, modified oligonucleotides targeting SEQ ID NO.: 1 and 2.
[4] abbreviates: Table 46, Yap1 mRNA as percent of untreated control, SNU-449 cells, single dose.
Where [5] appears, read: Table 42 (separate experiment), SNU-449 cells, 10,000 cells per well, free uptake, 2,000 nM modified oligonucleotide, approximately 48 hours, RTS36584, normalized to RIBOGREEN, Yap1 mRNA relative to untreated control cells.
Setting [6] is: Table 41, SNU-449 cells, 10,000 cells per well, free uptake, 2,000 nM modified oligonucleotide, approximately 48 hours, RTS36584, normalized to RIBOGREEN, Yap1 mRNA relative to untreated control cells.
Setting [7] is: Table 43 experiment, SNU-449 cells, 10,000 cells per well, free uptake, 2,000 nM, approximately 48 hours, RTS36584, Yap1 mRNA normalized to RIBOGREEN, relative to untreated control cells.
The mark [8] stands for this setting: Table 50, Yap1 mRNA remaining as percent of untreated control (UT), SNU-449 cells, single dose.
The mark [9] stands for this setting: Table 48, Yap1 mRNA level relative to untreated control, modified oligonucleotides targeting SEQ ID NO.: 1 and 2.
The mark [10] stands for this setting: Table 52, Yap1 mRNA, modified oligonucleotides targeting SEQ ID NO: 1 and 2.
The mark [11] stands for this setting: Table 39, SNU-449 cells, 10,000 cells per well, free uptake, 2,000 nM oligonucleotide, approx. 48 hours, RTS36584, normalized to RIBOGREEN, Yap1 mRNA relative to untreated control.
Where [12] appears, read: Table 44 experiment, SNU-449 cells, 10,000 cells per well, free uptake, 2,000 nM, approximately 48 hours, RTS36584, Yap1 mRNA normalized to RIBOGREEN, relative to untreated control cells.
Setting [13] is: Table 51, Yap1 mRNA remaining as percent of untreated control (UT), SNU-449 cells, single dose.

Strand notation (5' to 3'): a small letter for the sugar, then the base; units joined by * are phosphorothioate-linked, units joined directly phosphodiester-linked; [ ] holds rarer units or linkages, { } end groups; capitals alone tell only the bases. e = 2'-O-(2-methoxyethyl) (MOE); k = constrained ethyl (cEt); [5mC] = 5-methylcytosine; d = 2'-deoxy (DNA); m = 2'-O-methyl

As for “1198957 (kT*kT*dT*dA*dT*dG*dT*dA*dA*dT*dA*kT*dT*kG*d[5mC]*kA; antisense) [Compound 1198957]”, the “YAP1 (% UTC)” value under setting [1] came out at 81 % UTC.
As to “1198783 (antisense kA*eT*kG*dT*dA*dA*dT*dA*dT*dT*dG*d[5mC]*eA*eA*kT*k[5mC]) [Compound 1198783]”, the “YAP1 (% UTC)” value under setting [2] stood at 78 % UTC.
For “1198566 (antisense kT*kT*kT*dT*dA*d[5mC]*dA*dT*dT*dA*dG*dG*kA*kA*k[5mC]*eA) [Compound 1198566]”, the “YAP1 (% UT)” value under setting [3] is listed as 83 % UT.
Consider “1198836 (kG*kG*dA*dA*dG*dA*dT*d[5mC]*dT*dG*dA*kA*eA*k[5mC]*eT*k[5mC]; antisense) [Compound 1198836]”, for which, under setting [4], the “YAP1 (% UT)” value was 43 % UT.
For the substance “1198695 (antisense kT*kT*dT*dA*dT*dG*dT*dA*dA*dT*dA*dT*kT*eG*k[5mC]*eA) [Compound 1198695]”, the “YAP1 (% UTC)” value under setting [5] turned out to be 75 % UTC.
For “1198970 (kT*kA*dA*dG*dT*dA*dA*dG*dG*dT*dT*kT*d[5mC]*k[5mC]*d[5mC]*kA; antisense) [Compound 1198970]”, under setting [1], the “YAP1 (% UTC)” value is 29 % UTC.
For the substance “1198843 (kA*kG*dT*dG*d[5mC]*dT*dT*dT*dG*dG*dA*kA*eG*kA*eT*k[5mC]; antisense) [Compound 1198843]”, under setting [4], the “YAP1 (% UT)” value amounted to 45 % UT.
With “1198736 (kT*eG*kA*dG*dG*dT*dA*dT*dA*dA*d[5mC]*dT*eG*eG*kG*k[5mC]; antisense) [Compound 1198736]”, the “YAP1 (% UTC)” value under setting [6] stood at 20 % UTC.
Consider “1198473 (antisense kT*k[5mC]*dT*dA*dT*dA*dT*dT*dA*dG*dA*eG*kT*eA*kT*eG) [Compound 1198473]”, for which the “YAP1 (% UTC)” value under setting [7] is recorded as 66 % UTC.
Consider “1198652 (kT*kT*dT*dT*dA*d[5mC]*dA*dT*dT*dA*dG*dG*kA*eA*k[5mC]*eA; antisense) [Compound 1198652]”, for which, under setting [6], the “YAP1 (% UTC)” value stood at 68 % UTC.
On to “1198574 (antisense kG*kG*kA*dA*dG*dA*dT*d[5mC]*dT*dG*dA*dA*kA*k[5mC]*kT*e[5mC]) [Compound 1198574]”, for which the “YAP1 (% UT)” value under setting [3] is 37 % UT.
Same read-out and setting: the same measure for “1198361 (kT*kA*kA*dG*dG*dT*dT*dT*d[5mC]*d[5mC]*d[5mC]*dA*kG*eA*kT*eT; antisense) [Compound 1198361]”: 39 % UT.
As to “1198929 (kA*kG*dT*dG*d[5mC]*dT*dT*dT*dG*dG*dA*kA*dG*kA*dT*k[5mC]) [Compound 1198929]”, the “YAP1 (% UTC)” value under setting [1] came out at 43 % UTC.
Turning to “1198599 (antisense k[5mC]*kA*kA*d[5mC]*dT*d[5mC]*dT*dT*dA*dT*dA*dT*kG*kG*kT*eT) [Compound 1198599]”, the “YAP1 (% UT)” value under setting [8] was found to be 90 % UT.
For “1198362 (kA*kG*kT*dA*dA*dG*dG*dT*dT*dT*d[5mC]*d[5mC]*k[5mC]*eA*kG*eA; antisense) [Compound 1198362]”, under setting [3], the “YAP1 (% UT)” value is on record as 24 % UT.
“1197202 (antisense kA*k[5mC]*kT*d[5mC]*dT*dT*dA*dT*dA*dT*dG*dG*dT*kT*kT*kT) [Compound 1197202]”: the “YAP1 (% UT)” value under setting [9] is recorded as 27 % UT.
On to “1198579 (antisense kT*kG*k[5mC]*dT*dT*dT*dG*dG*dA*dA*dG*dA*kT*k[5mC]*kT*eG) [Compound 1198579]”, for which the “YAP1 (% UT)” value under setting [3] worked out at 34 % UT.
On to “1200868 (kT*kA*kA*dG*dT*mA*dA*dG*dG*dT*dT*dT*d[5mC]*k[5mC]*k[5mC]*kA; antisense) [Compound 1200868]”, for which the “YAP1 (% UT)” value under setting [10] is on record as 36 % UT.
On to “1198450 (kT*dA*dA*dG*dT*dA*dA*dG*dG*dT*dT*kT*e[5mC]*k[5mC]*e[5mC]*kA; antisense) [Compound 1198450]”, for which the “YAP1 (% UTC)” value under setting [11] amounted to 42 % UTC.
For “1198772 (k[5mC]*eT*k[5mC]*dT*dT*dA*dT*dA*dT*dG*dG*dT*eT*eT*kT*kG; antisense) [Compound 1198772]”, the “YAP1 (% UTC)” value under setting [6] is 41 % UTC.
As to “1198444 (kT*dT*dT*dA*dA*dA*dG*dT*dG*dT*dA*kT*eG*kT*e[5mC]*kA; antisense) [Compound 1198444]”, the “YAP1 (% UTC)” value under setting [2] came out at 70 % UTC.
Regarding “1198415 (kG*dA*dT*dT*dT*dA*dG*dG*dA*dT*dG*k[5mC]*eA*kT*eG*kG; antisense) [Compound 1198415]”, the “YAP1 (% UTC)” value under setting [11] came to 29 % UTC.
In the case of “1198351 (kT*kT*kT*dA*dT*dG*dT*dA*dA*dT*dA*dT*kT*eG*k[5mC]*eA; antisense) [Compound 1198351]”, the “YAP1 (% UT)” value under setting [3] came out at 40 % UT.
For the substance “1074461 (kG*kA*kA*dA*dT*dT*dG*dT*d[5mC]*dT*d[5mC]*dA*dT*kG*k[5mC]*k[5mC]) [Compound 1074461]”, the “YAP1 (% UTC)” value under setting [11] turned out to be 7 % UTC; the “YAP1 (% UTC)” value under setting [2] turned out to be 9 % UTC; the “YAP1 (% UTC)” value under setting [6] is listed as 12 % UTC; the “YAP1 (% UTC)” value under setting [5] was found to be 11 % UTC; the “YAP1 (% UTC)” value under setting [7] is given as 11 % UTC; the “YAP1 (% UTC)” value under setting [12] is 7 % UTC. Under setting [1], the “YAP1 (% UTC)” value amounted to 9 % UTC. In addition, the “YAP1 (% UT)” value under setting [4] worked out at 14 % UT; the “YAP1 (% UT)” value under setting [9] is given as 20 % UT; the “YAP1 (% UT)” value under setting [3] stood at 10 % UT; the “YAP1 (% UT)” value under setting [8] is given as 16 % UT; the “YAP1 (% UT)” value under setting [13] was 5 % UT; the “YAP1 (% UT)” value under setting [10] was determined as 15 % UT. Besides, the “YAP1 (% UT)” value (Yap1 mRNA, percent of untreated control, modified oligonucleotides targeting SEQ ID NO: 1 and 2, Table 47) turned out to be 5 % UT.
For the substance “1198902 (kT*kT*dA*dG*dA*dG*dT*dA*dT*dG*dT*kG*dG*k[5mC]*dA*kA; antisense) [Compound 1198902]”, under setting [12], the “YAP1 (% UTC)” value is 13 % UTC.
As to “1200800 (T_{ks}A_{ks}T_{ks}A_{ds}T_{ds}U_{ys}A_{ds}G_{ds}A_{ds}G_{ds}T_{ds}A_{ds}T_{ds}G_{ks}T_{ks}G_{k}; antisense; as printed in the source, key not given here) [Compound 1200800]”, under setting [13], the “YAP1 (% UT)” value amounted to 61 % UT.
With “1200789 (G_{ks}G_{ks}A_{ks}A_{ds}A_{ds}U_{ys}T_{ds}G_{ds}T_{ds}^{m}C_{ds}T_{ds}^{m}C_{ds}A_{ds}T_{ks}G_{ks}^{m}C_{k}; antisense; as printed in the source, key not given here) [Compound 1200789]”, the “YAP1 (% UT)” value under setting [10] stood at 12 % UT.
For “1198641 (kA*kT*dT*dA*dG*dA*dG*dT*dA*dT*dG*dT*kG*eG*k[5mC]*eA; antisense) [Compound 1198641]”, the “YAP1 (% UTC)” value under setting [6] is recorded as 15 % UTC.
Take “1198530 (kT*kT*dT*dA*dA*dA*dG*dT*dG*dT*dA*eT*kG*eT*k[5mC]*eA; antisense) [Compound 1198530]”: under setting [12], the “YAP1 (% UTC)” value came to 29 % UTC.
For “1198595 (antisense kT*k[5mC]*kT*dT*dA*dT*dA*dT*dG*dG*dT*dT*kT*kT*kG*eT) [Compound 1198595]”, under setting [8], the “YAP1 (% UT)” value was 27 % UT.
On to “1197256 (antisense kA*kT*kT*dT*mA*dG*dG*dA*dT*dG*d[5mC]*dA*dT*kG*kG*kT) [Compound 1197256]”, for which the “YAP1 (% UT)” value under setting [13] stood at 31 % UT.
With “1095407 (antisense kA*k[5mC]*dT*dG*dA*dG*dG*dT*dA*dT*dA*kA*e[5mC]*kT*eG*kG) [Compound 1095407]”, the “YAP1 (% UT)” value under setting [4] worked out at 54 % UT.
Turning to “1198210 (kT*kT*dA*dG*dA*dG*dT*dA*dT*dG*dT*eG*eG*e[5mC]*kA*kA; antisense) [Compound 1198210]”, the “YAP1 (% UTC)” value under setting [5] is 28 % UTC.
“1198298 (kT*kA*kT*dT*dA*dG*dA*dG*dT*dA*dT*dG*kT*eG*kG*e[5mC]; antisense) [Compound 1198298]”: the “YAP1 (% UT)” value under setting [9] was determined as 23 % UT.

The record behind these values is US11214803B2, “Modulators of YAP1 expression” (Ionis Pharmaceuticals, Inc., priority 2019, dated 2022).
